# Data reported in patent US12174174B2, “Composition comprising material for regulating OCT4 modification to repress stemness” (NATIONAL CANCER CENTER, priority 2018, dated 2024).
# System: CSNK2A1
# Assay: Doxycycline-dependent shRNA inhibition of CSNK2A1 expression in embryonic stem cell line E14, western blotting
# Format: cell-based, mouse
# Conditions: E14 cells, lentivirus, FIG. 24
# Excerpt: To confirm the relationship between CSNK2A1 and OCT4 phosphorylation using a kinase inducing the phosphorylation of serine 351 of OCT4, a cell line for regulating the inhibition of CSNK2A1 expression was produced. To this end, a lentivirus doxycycline-dependently expressing shRNA of SEQ ID NO: 5 or 6 was produced and transfected into an embryonic stem cell line E14, thereby producing a cell line capable of regulating CSNK2A1 expression using doxycycline.
row,Substance,OCT4 phosphorylation after inhibition of CSNK2A1 expression
1,"shRNA of SEQ ID NO: 5: short hairpin RNA inhibiting CSNK2A1 expression, base sequence of SEQ ID NO: 5 (CCGGCCGAGUUGCUUCUCGAUAUUUCUCGAGAAAUAUCGAGAAGCAACUCGGUUUUG)",a kinase inducing OCT4 phosphorylation is CSNK2A1
2,"shRNA of SEQ ID NO: 6: short hairpin RNA inhibiting CSNK2A1 expression, base sequence of SEQ ID NO: 6 (CCGGACAGACUAUGACAUUCGAUUUCUCGAGAAAUCGAAUGUCAUAGUCUGUUUUUUG)",a kinase inducing OCT4 phosphorylation is CSNK2A1
